Laboratory results taken from patent EP0465323A1, “Pyrimidin derivatives, angiotensin II receptor antagonists, their process of preparation and pharmaceutical compositions containing them” (LABORATOIRES UPSA, priority 1990, dated 1992).

Test system: récepteurs surrénaliens de l'angiotensine II
Test: Displacement of radioligand [125I]-SIAII specifically bound to rat adrenal angiotensin II receptors
Type: binding
Settings: rat adrenal homogenate, 60 min at 25°C
Excerpt: L'affinité des produits des exemples pour les récepteurs de l'angiotensine Il est évaluée par technique de déplacement d'un radioligand spécifiquement fixé sur les récepteurs surrénaliens de l'angiotensine II, chez le rat.
Une aliquote d'un homogénat de surrénales de rat incube en présence d'une concentration unique de [^125| ] - SIAII (Sar^1, Tyr^4, lle^8- angiotensine II), antagoniste des récepteurs de l'angiotensine II, et de deux concentrations d'agents compétiteurs (10^-5 M, 10-^7 M), durant 60 min à 25°C.
La réaction est achevée par ajout de tampon, puis rapide filtration à travers des filtres de papier de verre. La liaison non spécifique est déterminée en présence d'angiotensine II.
Les résultats sont exprimés, pour les concentrations testées, en pourcentage de déplacement du radioligand spécifiquement fixé sur les récepteurs surrénaliens de l'angiotensine II.

| Compound | % de déplacement du ligand marqué (competitor 1E-5M, 10 µM) | % de déplacement du ligand marqué (competitor 1E-7M, 0.1 µM) |
| --- | --- | --- |
| CCCc1nc(C)n(CC(=O)OCC)c(=O)c1Cc1ccc(NC(=O)c2ccccc2S(=O)(=O)O)cc1 [Exemple 13] | 96% | 64% |
| CCCc1nc(C)n(CC(=O)O)c(=O)c1Cc1ccc(NC(=O)c2c(Cl)ccc(Cl)c2C(=O)O)cc1 [Exemple 14, Acide [n-propyl-4 méthyl-2 oxo-6 [(carboxy-2 dichloro-3,6-phényl)carbonylamino-4 phénylméthyl]-5 pyrimidine-yl-1 (6H)-] acétique] | 81% | 38% |
| CCCc1nc(C)nc(OCCO)c1Cc1ccc(-c2ccccc2C(=O)O)cc1 [Exemple 16, Acide [n-propyl-6 méthyl-2 hydroxy éthyloxy-4 pyrimidine-yl-5] méthyl-4' biphényl-2 carboxylique] | 65% | 31% |
| CCCc1nc(C)nc(OC(=O)N(C)C)c1Cc1ccc(NC(=O)c2ccccc2S(=O)(=O)O)cc1 [Exemple 27, Acide [[n-propyl-6 méthyl-2 (N,N-diméthyl amino carbonyloxy)-4 pyrimidine-yl-5]méthylphényl-yl-4] amino carbonyl-2 benzène sulfonique] | 76% | 20% |
| CCCc1nc(C)nc(OC)c1Cc1ccc(-c2ccccc2-c2nn[nH]n2)cc1 [Exemple 31, n-Propyl-6 méthy1-2 méthoxy-4 [(tétrazol-yl-5)-2' biphényl-yl-4] méthyl-5 pyrimidine] | 71% | 51% |
| CCCc1nc(C)n(CC(=O)OCC)c(=O)c1Cc1ccc(-c2ccccc2-c2nn[nH]n2)cc1 [Exemple 32, [n-Propyl-4 méthyl-2 oxo-6 [(tétrazol-yl-5)-2' biphényl-yl-4]méthyl-5 pyrimidine-yl-1 (6H)-] acétate d'éthyle] | 94% | 67% |
| CCCc1nc(C)nc(SCC(=O)OCC)c1Cc1ccc(-c2ccccc2-c2nn[nH]n2)cc1 [Exemple 33, [n-Propyl-6 méthyl-2 [(tétrazol-yl-5)-2' biphényl-yl-4]méthyl-5 pyrimidine-yl-4] mercapto acétate d'éthyle] | 69% | 62% |
| CCCc1nc(C)nc(N2CCOCC2)c1Cc1ccc(NC(=O)c2ccccc2S(=O)(=O)O)cc1 [Exemple 56, Acide [[n-Propyl-6 méthyl-2 (morpholine-yl-1)-4 pyrimidine-yl-5]méthylphényl-yl-4] amino carbonyl-2 benzène sulfonique] | 86% | 59% |
| CCCc1nc(C)nc(N2CCN(c3ccccc3OC)CC2)c1Cc1ccc(NC(=O)c2ccccc2S(=O)(=O)O)cc1 [Exemple 58, Acide [[n-Propyl-6 méthyl-2 ((méthoxy-2 phényl)pipérazine-yl-4)-4 pyrimidine-yl-5]méthylphényl-yl-4] amino carbonyl-2 benzène sulfonique] | 78% | 53% |

The remaining lines, values ahead:

| % de déplacement du ligand marqué (competitor 1E-5M, 10 µM) | % de déplacement du ligand marqué (competitor 1E-7M, 0.1 µM) | Compound |
| --- | --- | --- |
| 93% | 62% | CCCc1nc(C)nc(SCC(=O)OCC)c1Cc1ccc(NC(=O)c2ccccc2S(=O)(=O)O)cc1 [Exemple 24, Acide [[n-Propyl-6 méthyl-2 (éthoxycarbonyl méthyl mercapto)-4 pyrimidine-yl-5]méthylphényl-yl-4] amino carbonyl-2 benzène sulfonique] |
| 84% | 65% | CCCc1nc(C)nc(SCCO)c1Cc1ccc(NC(=O)c2ccccc2S(=O)(=O)O)cc1 [Exemple 54, Acide [(n-Propyl-6 méthyl-2 hydroxyéthylmercapto-4 pyrimidine-yl-5)methylphenyl-yl-4] amino carbonyl-2 benzène sulfonique] |
| 86% | 60% | CCCCc1nc(C)nc(SCCO)c1Cc1ccc(NC(=O)c2ccccc2S(=O)(=O)O)cc1 [Exemple 55, Acide [(n-butyl-6 méthyl-2 hydroxyéthylmercapto-4 pyrimidine-yl-5)méthylphényl-yl-4] amino carbonyl-2 benzène sulfonique] |
| 80% | 69% | CCCCc1nc(C)nc(N)c1Cc1ccc(NC(=O)c2ccccc2S(=O)(=O)O)cc1 [Exemple 57, Acide [(n-Butyl-6 méthyl-2 amino-4 pyrimidine-yl-5)méthylphényl-yl-4] amino carbonyl-2 benzène sulfonique] |
| 89% | 57% | CCCc1nc(C)nc(SC)c1Cc1ccc(NC(=O)c2ccccc2S(=O)(=O)O)cc1 [Exemple 59, Acide [[n-Propyl-6 méthyl-2 méthylthio-4 pyrimidine-yl-5]méthylphényl-yl-4] amino carbonyl-2 benzène sulfonique] |
| 96% | 63% | CCCCc1nc(C)nc(SCC(=O)OCC)c1Cc1ccc(NC(=O)c2ccccc2S(=O)(=O)O)cc1 [Exemple 61, Acide [[n-Butyl-6 Méthyl-2 (éthoxycarbonyl méthyl thio)-4 pyrimidine-yl-5]méthylphényl-yl-4] amino carbonyl-2 benzène sulfonique] |
| 72% | 0% | CCCCc1nc(-c2ccccc2)nc(SCC(=O)OCC)c1Cc1ccc(NC(=O)c2ccccc2S(=O)(=O)O)cc1 [Exemple 75, Acide [[n-butyl-6 phényl-2 (éthoxy carbonyl méthyl thio)-4 pyrimidine-yl-5]méthylphényl-yl-4] amino carbonyl-2 benzène sulfonique] |
| 93% | 37% | CCCCc1nc(C(C)C)nc(SCC(=O)OCC)c1Cc1ccc(NC(=O)c2ccccc2S(=O)(=O)O)cc1 [Exemple 76, Acide [[n-butyl-6 isopropyl-2 (éthoxy carbonyl méthyl thio)-4 pyrimidine-yl-5]méthylphényl-yl-4] amino carbonyl-2 benzène sulfonique] |
| 63% | 4% | CCCCc1nc(-c2ccccc2)nc(SCCO)c1Cc1ccc(NC(=O)c2ccccc2S(=O)(=O)O)cc1 [Exemple 77, Acide [[n-butyl-6 phényl-2 (hydroxy éthyl thio)-4 pyrimidine-yl-5]méthylphényl-yl-4] amino carbonyl-2 benzène sulfonique] |
| 74% | 41% | CCCCc1nc(C(C)C)nc(SCCO)c1Cc1ccc(NC(=O)c2ccccc2S(=O)(=O)O)cc1 [Exemple 78, Acide [[n-butyl-6 isopropyl-2 (hydroxy éthyl thio)-4 pyrimidine-yl-5]méthylphényl-yl-4] amino carbonyl-2 benzène sulfonique] |
